Experimental data reported in PubChem BioAssay (NCI).
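Five compound concentrations were applied to cells in 96-well plates for 48 hours; endpoints were derived by simple linear interpolation of the resulting dose-response curve. GI50 marks 50% less growth. TGI denotes the concentration required for complete inhibition of growth.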

What was measured:
Experiment in all cases: NCI anticancer screen, dose series, 48 h
[1] = test system: 786-0 renal
[2] = test system: A498 renal
[3] = test system: A549 NSCLC
[4] = test system: ACHN renal
[5] = test system: BT-549 breast
[6] = test system: CAKI-1 renal
[7] = test system: CCRF-CEM leukemia
[8] = test system: COLO 205 colon
[9] = test system: DU-145 prostate
[10] = test system: EKVX NSCLC
[11] = test system: HCC-2998 colon
[12] = test system: HCT-116 colon
[13] = test system: HCT-15 colon
[14] = test system: HL-60(TB) leukemia
[15] = test system: HOP-62 NSCLC
[16] = test system: HOP-92 NSCLC
[17] = test system: HS 578T breast
[18] = test system: HT29 colon
[19] = test system: IGROV1 ovarian
[20] = test system: K-562 leukemia
[21] = test system: KM12 colon
[22] = test system: LOX IMVI melanoma
[23] = test system: M14 melanoma
[24] = test system: MALME-3M melanoma
[25] = test system: MCF7 breast
[26] = test system: MDA-MB-231 breast
[27] = test system: MDA-MB-435
[28] = test system: MOLT-4 leukemia
[29] = test system: NCI-H226 lung
[30] = test system: NCI-H23 lung
[31] = test system: NCI-H460 lung
[32] = test system: NCI-H522 lung
[33] = test system: NCI/ADR-RES ovarian
[34] = test system: OVCAR-3 ovarian
[35] = test system: OVCAR-4 ovarian
[36] = test system: OVCAR-5 ovarian
[37] = test system: OVCAR-8 ovarian
[38] = test system: PC-3 prostate
[39] = test system: RXF 393 renal
[40] = test system: SF-268 CNS
[41] = test system: SF-295 CNS
[42] = test system: SF-539 CNS
[43] = test system: SK-MEL-2 melanoma
[44] = test system: SK-MEL-28 melanoma
[45] = test system: SK-MEL-5 melanoma
[46] = test system: SK-OV-3 ovarian
[47] = test system: SN12C renal
[48] = test system: SNB-19 CNS
[49] = test system: SNB-75 CNS
[50] = test system: SR leukemia
[51] = test system: SW-620 colon
[52] = test system: T-47D breast
[53] = test system: TK-10 renal
[54] = test system: U251 CNS
[55] = test system: UACC-257 melanoma
[56] = test system: UACC-62 melanoma
[57] = test system: UO-31 renal

COc1cc(/C=C/c2cc(O)c(C(C)=O)c(O)c2)cc2c1O[C@]1(C)CC[C@@H](O)C(C)(C)[C@H]1C2
GI50 [1]: 2.91 µM | TGI [1]: 28.9 µM | GI50 [2]: 4.78 µM | TGI [2]: 48.3 µM | GI50 [3]: 8.54 µM | TGI [3]: > 100 µM | GI50 [4]: 10.5 µM | TGI [4]: 78.3 µM | GI50 [5]: 3.03 µM | TGI [5]: 27.6 µM | GI50 [6]: 4.12 µM | TGI [6]: > 100 µM | GI50 [7]: 4.4 µM | TGI [7]: > 100 µM | GI50 [8]: 16.1 µM | TGI [8]: 68.3 µM | GI50 [9]: 16.6 µM | TGI [9]: > 100 µM | GI50 [10]: 13.1 µM | TGI [10]: 72.9 µM | GI50 [11]: 6.7 µM | TGI [11]: 32.4 µM | GI50 [12]: 4.56 µM | TGI [12]: 22 µM | GI50 [13]: 4.68 µM | TGI [13]: 35.7 µM | GI50 [14]: 4.13 µM | TGI [14]: 23.8 µM | GI50 [15]: 4.56 µM | TGI [15]: 48.4 µM | GI50 [16]: 3.2 µM | TGI [16]: 61.6 µM | GI50 [17]: 1.87 µM | TGI [17]: 16.2 µM | GI50 [18]: 4.05 µM | TGI [18]: > 100 µM | GI50 [19]: 6.44 µM | TGI [19]: 69 µM | GI50 [20]: 3.64 µM | TGI [20]: > 100 µM | GI50 [21]: 5.41 µM | TGI [21]: 45.4 µM | GI50 [22]: 2.85 µM | TGI [22]: 13.3 µM | GI50 [23]: 5.12 µM | TGI [23]: 49.4 µM | GI50 [24]: 7.35 µM | TGI [24]: 44.2 µM | GI50 [25]: 3.31 µM | TGI [25]: 22.2 µM | GI50 [26]: 6.26 µM | TGI [26]: 93 µM | GI50 [27]: 7.38 µM | TGI [27]: 57.2 µM | GI50 [28]: 3.22 µM | TGI [28]: 34.7 µM | GI50 [29]: 16.8 µM | TGI [29]: 54.2 µM | GI50 [30]: 10.7 µM | TGI [30]: 34.5 µM | GI50 [31]: 6.26 µM | TGI [31]: 57.5 µM | GI50 [32]: 17.3 µM | TGI [32]: 54 µM | GI50 [33]: 14.3 µM | TGI [33]: 65.8 µM | GI50 [34]: 4.67 µM | TGI [34]: 53.9 µM | GI50 [35]: 13.5 µM | TGI [35]: 74.5 µM | GI50 [36]: 16.3 µM | TGI [36]: 75.5 µM | GI50 [37]: 8.24 µM | TGI [37]: > 100 µM | GI50 [38]: 3.75 µM | TGI [38]: > 100 µM | GI50 [39]: 1.7 µM | TGI [39]: 6.06 µM | GI50 [40]: 5.86 µM | TGI [40]: 55.2 µM | GI50 [41]: 2.92 µM | TGI [41]: 10.5 µM | GI50 [42]: 1.32 µM | TGI [42]: 6.2 µM | GI50 [43]: 7.87 µM | TGI [43]: 51.6 µM | GI50 [44]: 4.17 µM | TGI [44]: 26.2 µM | GI50 [45]: 7.12 µM | TGI [45]: 22.3 µM | GI50 [46]: 9.58 µM | TGI [46]: 79.1 µM | GI50 [47]: 9.07 µM | TGI [47]: 72.8 µM | GI50 [48]: 7.46 µM | TGI [48]: > 100 µM | GI50 [49]: 1.77 µM | TGI [49]: 27 µM | GI50 [50]: 3.62 µM | TGI [50]: > 100 µM | GI50 [51]: 5.52 µM | TGI [51]: > 100 µM | GI50 [52]: 6.22 µM | TGI [52]: 64.6 µM | GI50 [53]: 22.2 µM | TGI [53]: > 100 µM | GI50 [54]: 3.71 µM | TGI [54]: > 100 µM | GI50 [55]: 11 µM | TGI [55]: 72.7 µM | GI50 [56]: 2.89 µM | TGI [56]: 11.5 µM | GI50 [57]: 3.22 µM | TGI [57]: 65.5 µM
